Experimental data reported in patent US20030157541A1, “Regulation of human CycLT2-like GPCR protein” (Bayer Aktiengesellschaft, priority 2000, published 2003).

Target: T1, CysLT2 (Homo sapiens, UniProt Q9NS75)
T1 construct: expressed in transfected cells; membranes used
T1 sequence (Q9NS75 1-346): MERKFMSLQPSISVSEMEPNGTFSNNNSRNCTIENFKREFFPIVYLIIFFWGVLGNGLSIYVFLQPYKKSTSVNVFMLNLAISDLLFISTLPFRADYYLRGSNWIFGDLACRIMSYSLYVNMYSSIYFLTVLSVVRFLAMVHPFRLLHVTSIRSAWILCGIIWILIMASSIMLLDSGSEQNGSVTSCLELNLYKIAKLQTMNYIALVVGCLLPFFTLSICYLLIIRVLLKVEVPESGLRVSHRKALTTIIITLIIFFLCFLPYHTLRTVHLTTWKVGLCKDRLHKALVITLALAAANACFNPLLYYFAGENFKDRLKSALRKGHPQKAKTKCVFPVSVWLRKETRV
Experiment: Competition for [^3H]LTD4-specific binding to CysLT2 membranes
Procedure: Membrane preparation for CysLT2 receptor binding assay. Peak stable cells transformed with CysLT2 expression vector were maintained in D-MEM supplemented with 10% FCS and 2 μg/ml of puromycin. Cells were collected and kept at −80° C. until membrane preparation. Frozen cells were suspended in cold membrane preparation buffer (50 mM Tris-HCl pH 7.5, protease inhibitor mixture(#1873580, Roche)), and disrupted with Polytron (Cat.#PT10-35, Kinematica AG, Switzerland). Disrupted cells were centrifuged at 500×g for 5 minutes at 4° C. to remove the nuclear fraction, and supernatants were applied to high speed centrifugation (45,000×g, 15 minutes, 4° C.) to precipitate membrane fraction. After the supernatant was removed, membrane preparation buffer were added to the pellet and homogenized gently on ice. Glycerol (final conc.;10%) and bovine serum albumin (final conc.:0.5%, Cat#A-3059, Sigma) were added to the membrane suspension as stabilizer. Membrane suspension was then divided into small vials and frozen in liquid nitrogen. After 1 hour freezing, vials were kept at −80° C. until use.
At the end of the binding reaction, 100 μl of the reaction mixture was transferred to a 96-well filtration plate (Cat.#MAFB-N0B, Millipore), and washed 3 times with 200 μl/well of cold binding buffer. […] The specific binding (total binding—non-specific binding) was measured by liquid scintillation counter (TopCount™, Packard) and expressed as the relative binding (%) in the figure.
Inhibition assay using several antagonists.

SMILES: O=C(O)CCCNC(=O)c1cc(C(=O)O)ccc1OCCCc1ccc(OCCCCOc2ccccc2)cc1 [Bay y8934]
- IC50: 1 µM

SMILES: CCCCC/C=C\C[C@@H](O)/C=C/C=C/C=C\[C@@H](O)CCCC(=O)O [LTB4, Leukotriene B4]
- inhibition of [^3H]LTD4 binding to CysLT2 (at concentrations up to 10^−6 M, 0.4 nM [^3H]-labeled LTD4): did not inhibit

SMILES: CCOC(=O)c1cn(-c2ccc(C3=CC(F)(F)C3(F)F)cc2)c2cc(F)c(F)cc2c1=O [Bay y9773]
- IC50: 2 µM
